One compound from patent publication US20210386695A1 (priority 2020, published 2021) can be followed below.

Broadly, the EC50 is the concentration at which the effect is half-maximal.

For one data set, the target named is SARS-CoV-2 M^pro (Severe acute respiratory syndrome coronavirus 2, UniProt P0DTD1). The data set can be described thus: FRET based assay of SARS-CoV-2 Mpro protease activity. It is filed as biochemical.
A further data set addresses SARS-CoV-2 PL^pro (Severe acute respiratory syndrome coronavirus 2, UniProt P0DTD1). Put plainly: SARS-CoV-2 PLpro protease activity, peptide substrate Z-RLRGG-AMC. It is filed as biochemical.
Data set [1] deals with wild type SARS-CoV-2 pseudo-particles. The data set can be described thus: microbe, parasite or virus in culture. It is filed as cell-based. The settings on record: Severe acute respiratory syndrome coronavirus 2, Vero C1008.
Data set [2] shares this test system. It is filed as cell-based.
The test system is the same in data set [3]. It is filed as cell-based. This is another data set of the same source.
Another data set in a line: in vitro. Particulars: African green monkey.
[4] abbreviates: read-out: inhibitory effect on the protease activity of SARS-CoV-2 PL^pro.

With `CCN(CC)C(=S)SSC(=S)N(CC)CC` [disulfiram], on SARS-CoV-2 M^pro, the inhibition at 1 µM worked out at 16%, the inhibition at 5 µM is 80.9% and the inhibition at 10 µM was 87.1%. Further, at SARS-CoV-2 M^pro (30 μM disulfiram), the “inhibition of protease activity of SARS-CoV-2 M^pro” value is recorded as “full inhibition”. Besides, the “inhibition of protease activity of SARS-CoV-2 M^pro” value against SARS-CoV-2 M^pro (60 μM disulfiram) is listed as “full inhibition”. On SARS-CoV-2 PL^pro (1 μM disulfiram), the “inhibitory effect on the protease activity of SARS-CoV-2 PL^pro” value is “does not inhibit”. Also, on SARS-CoV-2 PL^pro (setting [4]), the inhibition at 5 µM came to 21.7%, the inhibition at 10 µM was determined as 36.3%, the inhibition at 30 µM was 77.9% and the inhibition at 60 µM turned out to be 99.9%. For the same compound, the concentration for a half-maximal effect (EC50) in data set [1] is 3.1 µM. In data set [2], the “block of viral pseudo-particles infection” value is “dose-dependent manner”. Also, the “inhibitory capacity in furin-expressing Vero E6 cells compared with Vero E6 cells” value in data set [3] is listed as “similar”. Moreover, the CC50 in “in vitro” is 15.7 µM.
